# Source: patent publication US5523457A, “Retinoid-like compounds” (Bristol-Myers Squibb Company, priority 1995, dated 1996)
# Read-outs that look alike come from different tables or passages of the source.
# Columns and labels:
# lung line L2987 = experiment: Cytotoxicity assay (alamarBlue cell viability), lung line L2987, experiment 2; assay type: cell-based; details: Homo sapiens
# Protocol: FIG. 1 is the cytotoxicity dose response curves for lung line L2987. […] Briefly, the assayed involved plating 1000 cells per well in a volume of 120 μL in a 96 well flat-bottom dish (Corning) on day -1. Twenty-four hours later the appropriate dilution of a compound of formula I was added in a volume of 30 μL complete medium (final volume 150 μL). The plates were sealed with a plate sealer (Dynatech Labs) to prevent evaporation. On day 5 the mylar film was removed and 15 μL of sterile alamarBlue was added to each well and the cells were incubated 37° C. 5% CO2 for two hours. Using a Vmax plate reader the optical density for each well was determined having the […]. The 100% signal was determined for cells grown in complete medium containing only 0.5% DMSO. All wells were set-up in triplicate and the mean values were plotted in FIG. 1.
# [1] = tested on: second primary tumors in squamous-cell carcinoma of the head and neck; details: Hong et al., N. Engl. J. Med., 1990; cited from earlier work
# [2] = L2987 lung line, 1000 cells per well, compound added 24 h after plating, read on day 5 with alamarBlue, triplicate wells, read-out: IC50 values for L2987 experiment 2
Compound,IC50 (lung line L2987; [2]),further results
"CC1=C(/C=C/C(C)=C/C=C/C(C)=C/C(=O)O)C(C)(C)CCC1 [All trans retinoic acid, reference compound]",,"IC50 (lung line L2987; L2987, read-out: IC50 values for L2987 experiment 2): 68 µM"
"O=C(O)c1ccc(NC(=O)c2ccc3cccc(-c4ccccc4)c3c2)cc1 [I^2' a, 4-[[(8-phenyl-2-naphthalenyl)carbonyl]amino]benzoic acid]",72 µM,
"Cc1cc(C)cc(-c2cccc3ccc(C(=O)Nc4ccc(C(=O)O)cc4)cc23)c1 [I^2' b, 4-[[[8(3,5-Dimethylphenyl)-2-naphthalenyl]carbonyl]amino]benzoic acid]",39 µM,
"Cc1ccc(-c2cccc3ccc(C(=O)Nc4ccc(C(=O)O)cc4)cc23)cc1C [I^2' f, 4-[[[8-(3,4-Dimethylphenyl)-2-naphthalenyl]carbonyl]amino]benzoic acid]",49 µM,
"Cc1ccc(-c2cccc3ccc(C(=O)Nc4ccc(C(=O)O)cc4)cc23)c(C)c1 [I^2' g, 4-[[[8-(2,4 -Dimethylphenyl)-2-naphthalenyl]carbonyl]amino]benzoic acid]",54 µM,
CC1=C(/C=C/C(C)=C/C=C/C(C)=C\C(=O)O)C(C)(C)CCC1 [Isotretinoin],,prevention of second primary tumors in squamous-cell carcinoma of the head and neck [1]: shown to be useful in prevention of second primary tumors
